The PolyMetriX glass transition set
± gives the standard deviation of the reports.

| Compound | glass transition temperature [°C] |
| --- | --- |
| *O[Si](C)(C)CCCNC(=O)C(=O)NCCC[Si](*)(C)C (repeat unit) | -46.48 |
| *c1ccc(-c2cc3c(ccc4ccccc43)cc2-c2ccc(N(*)c3ccc(C)cc3)cc2)cc1 (repeat unit) | 126.00 |
| *C(=O)CCCCCCCCC(=O)N1CC(C)N(*)CC1C (repeat unit) | -60.50 |
| *CCOc1ccc(S(=O)(=O)c2ccc(OCCOP(=O)(O*)Oc3ccc(OC)cc3)cc2)cc1 (repeat unit) | 52.00 |
| *c1ccc(C(=O)Nc2ccc(Oc3ccc(NC(=O)c4ccc(Oc5ccc(-c6nn(*)c(=O)c7ccccc67)c6ccccc56)cc4)cc3)cc2)cc1 (repeat unit) | 317.50 |
| *C(=O)Nc1cccc(C(=O)Nc2cccc(NC(=O)c3ccc4[nH]c(-c5cccc(-c6nc7cc(*)ccc7[nH]6)c5)nc4c3)c2)c1 (repeat unit) | 331.00 |
| *CCCCCCNC(=O)CCCCCCC(=O)N* (repeat unit) | 57.00 |
| *CC(*)c1ccc(B(Oc2ccc(Cl)c3cccnc23)c2ccc(C(C)(C)C)cc2)cc1 (repeat unit) | 238.00 |
| *CC(*)C1CCCCC1 (repeat unit) [poly(vinylcyclohexane)] | 104.78 ± 28 |
| *C(=O)c1ccc(Oc2ccc(C3(c4ccc(Oc5ccc(*)s5)cc4)c4ccccc4-c4ccccc43)cc2)cc1 (repeat unit) | 195.00 |
| *C(=O)Nc1ccc(Oc2ccc(C(c3ccc(Oc4ccc(NC(=O)c5ccc6c(c5)C(=O)N(c5ccc(Oc7ccc8ccc(Oc9ccc(N%10C(=O)c%11ccc(*)cc%11C%10=O)cc9)cc8c7)cc5)C6=O)cc4)cc3)(C(F)(F)F)C(F)(F)F)cc2)cc1 (repeat unit) | 250.00 |
| *C(=O)Nc1ccc(Oc2ccc(N3C(=O)CC(N4C(=O)c5ccc(*)cc5C4=O)C3=O)cc2)cc1 (repeat unit) | 223.00 |
| *Oc1cccc(*)c1 (repeat unit) | 53.00 |
| *CC(*)n1c2ccccc2c2cc3ccccc3cc21 (repeat unit) | 253.00 |
| *CCCCCCOC(=O)C(CCCCCCCCCCP(=O)(OCC)OCC)C(=O)OCCCCCCOc1ccc(-n2on2-c2ccc(O*)cc2)cc1 (repeat unit) | 9.00 |

Next, values leading:

| glass transition temperature [°C] | Compound |
| --- | --- |
| 27.00 | *Oc1ccc(CC(NC(=O)CCc2ccc(OC(=O)COCC(*)=O)cc2)C(=O)OCCOCCOCC)cc1 (repeat unit) |
| 167.00 | *Oc1cccc(Oc2ccc(S(=O)(=O)c3ccc(Oc4ccc(C(=O)c5ccc(*)cc5)cc4)cc3)cc2)c1 (repeat unit) |
| -20.00 | *CC(*)c1ccc(COCCCCCC)cc1 (repeat unit) |
| 51.00 | *CC(*)(C)C(=O)OCCCCOc1ccc(OC(=O)c2ccc(OCCCC)cc2)cc1 (repeat unit) |
| 36.00 | *CCCOC(=O)c1cccc(C(=O)O*)c1 (repeat unit) |
| 32.00 | *CC(COC(=O)O*)OCCCCCCOc1ccc(/C=C/c2ccc([N+](=O)[O-])cc2)cc1 (repeat unit) |
| 45.60 | *CC(*)C(=O)OCCCOc1ccc(/N=N/c2ccc([N+](=O)[O-])cc2)cc1 (repeat unit) |
| 17.00 | *CCOCCOCCOCCOCCOc1ccc(/C=C(\C)c2ccc(O*)cc2)cc1 (repeat unit) |
| 125.00 | *CCOCCOCCOCCOCCOCCOc1ccc(C(=O)Nc2cc(NC(=O)c3ccc(O*)cc3)cc(-c3nc4ccccc4[nH]3)c2)cc1 (repeat unit) |
| 65.00 | *CC(COc1ccc(C(C)(C)c2ccc(O*)cc2)cc1)OC(=O)CCl (repeat unit) |
| 232.00 | *CCC(=O)Nc1ccc(Oc2ccc(NC(=O)CCN3C(=O)c4ccc(C(=O)c5ccc6c(c5)C(=O)N(*)C6=O)cc4C3=O)cc2)cc1 (repeat unit) |
| 155.00 | *Oc1ccc(C(=O)NCC(C)(C)CCCNC(=O)c2ccc(*)cc2)cc1 (repeat unit) |
